Experimental data as given in patent publication US20050282745A1, “Non-mammalian GnRH analogs and uses thereof in regulation of fertility and pregnancy” (priority 2001, published 2005).
One block for each molecule: values may come before it. Non-standard residues stand in square brackets, D forms with d. Residues, ends and D or L forms follow the SMILES beside them. *: point of attachment. dPhe(4-Cl) = N[C@H](Cc1ccc(Cl)cc1)C(=O)O; d2Nal = N[C@H](Cc1ccc2ccccc2c1)C(=O)O; Lys(iPr) = CC(C)NCCCC[C@H](N)C(=O)O; d3Pal = N[C@H](Cc1cccnc1)C(=O)O; pGlu = O=C1CC[C@@H](C(=O)O)N1; Nicotinoyl = O=C(c1cccnc1)*

Legend:
[1] = test system: chorionic peptidase-1 (C-ase-1); assay: C-ase-1 enzyme activity assay, competition for degradation of GnRH; conditions: for relative potency of inhibition of C-ase-1 degradation of GnRH, compared to GnRH: Example V; for Ki: competition for degradation of mammalian GnRH
[2] = test system: chorionic peptidase-1 (C-ase-1)
pregnant baboons = assay: Pregnant baboons, mini-pump days 14-21 post ovulation; type: in vivo, baboon
Protocol: Mammalian GnRH analogs, ZOLADEX™ (Goserelin acetate) and Organon 30276, were administered to pregnant baboons via mini-pump on days 14 through 21 post ovulation. The hormonal release and pregnancy outcome was compared to saline treated controls. […] In a dose-response saline-controlled study using very high doses of mammalian GnRH analog, a small stimulation of hCG in very early pregnancy was observed by the present inventor.

[3] = test system: human placental GnRH receptor; assay: Placental GnRH receptor binding, 125I-Buserelin label; conditions: for receptor activity/potency compared with GnRH: 125I-Buserelin, Example VI
Protocol: The newly synthesized non-mammalian GnRH analogs and other commercially available mammalian GnRH analogs were used in placental receptors binding and enzyme stability study described here. […] GnRH receptors were purified from the membrane fractions from placentas. The purification procedure for the placental GnRH receptor was performed using a modification of the method described by Bramley et al., which reference is specifically incorporated herein by reference for the purpose. Addition of enzyme inhibitors for the endogenous C-ase-1 were used as well as agents for receptor stabilization. Initially, receptor-binding assays using ^125I-Buserelin as label were performed. The competitive binding of each of the analogs was studied over a dose range of 10^−11 to 10^−6 M. Incubation was at room temperature and receptor bound label was precipitated with polyethylene glycol. Specific and non-specific binding was determined. The data was subjected to Scatchard analysis. The non-mammalian GnRH analogs' ability to bind to the placental GnRH receptor was compared to that for synthetic mammalian GnRH (SEQ ID NO: 5), Buserelin (SEQ ID NO: 10) and other mammalian analogs. […] This way, the receptor affinity for that analog could be precisely determined. Receptors from three different term placentas were used to study each of these analogs. […] Bramley T A, McPhie C A, Menzies G S 1994 Human placental gonadotropin-releasing hormone (GnRH) binding sites: 111. […] Placenta 15:733-745.
In these and additional studies, placental GnRH receptors were purified from human term placentas after homogenization in 40 mM Tris (pH 7.4) and filtered through cheesecloth, followed by an initial centrifugation at 1,000×g for 10 minutes. The resulting supernatant was, again, centrifuged at 35,000×g for 30 minutes and the membrane pellet was collected and resuspended in Tris buffer with 0.3 M sucrose. The protein concentration was determined. Membranes were stored frozen at −20 C until use. Before use, placental membranes were diluted to 5,000 μg/mL with Tris buffer containing 0.5% BSA and 50 U/mL bacitracin. […] Following incubation at room temperature for 4 hours, the bound and free hormones were separated using polyethylene glycol precipitation, followed by centrifugation. The binding affinity for each GnRH isoform or analog was calculated using the double reciprocal plot of bound versus free ligand. Each study was done using three different human term placental tissues.
Receptor assays were performed by incubating human term placental GnRH receptors with varying concentrations of GnRH or its analogs in the presence of ^125I-Buserelin. The reaction was stopped and the bound hormone precipitated with polyethylene glycol.

placental homogenate = assay: Degradation in whole placental homogenate; type: in vitro ADME, human
Protocol: Studies using whole placental homogenate were also performed. […] The competition by the newly synthesized non-mammalian GnRH analogs as compared to mammalian GnRH (SEQ ID NO: 5) was then studied to confirm the C-ase-1 studies above. […] (FIG. 3)
The stability of these analogs in the present of whole placental homogenates was examined. The ethylamide derivative has a slowed degradation rate as compared to GnRH, but can be degraded.

Molecule: CC(=O)N[C@H](Cc1ccc2ccccc2c1)C(=O)N[C@H](Cc1ccc(Cl)cc1)C(=O)N[C@H](Cc1cccnc1)C(=O)N[C@@H](CO)C(=O)N[C@@H](CCCCNC(=O)c1cccnc1)C(=O)N[C@H](CCCCNC(=O)c1cccnc1)C(=O)N[C@@H](CC(C)C)C(=O)N[C@@H](CCCCNC(C)C)C(=O)N1CCC[C@H]1C(=O)N[C@H](C)C(N)=O [Antide] (Ac-[d2Nal][dPhe(4-Cl)][d3Pal]SK(Nicotinoyl)[dK](Nicotinoyl)L[Lys(iPr)]P[dA]-NH2; N-terminus and C-terminus assumed)
relative potency of inhibition of C-ase-1 degradation of GnRH, compared to GnRH [1]: 0.6 | potency as competitor compared with salmon or chicken II GnRHs ([1]; Example VII): two-fold more potent | potency as competitor for GnRH degradation by C-ase-1 compared with GnRH ([1]; Example VII): three-fold less potent | degradation by / competition for C-ase-1, in words [2]: degraded with reduced activity

Molecule: CCNC(=O)[C@@H]1CCCN1C(=O)[C@H](Cc1ccc(O)cc1)NC(=O)[C@H](Cc1c[nH]c2ccccc12)NC(=O)[C@@H](CCCNC(=N)N)NC(=O)[C@H](Cc1c[nH]cn1)NC(=O)[C@H](CO)NC(=O)[C@H](Cc1c[nH]c2ccccc12)NC(=O)[C@H](Cc1c[nH]cn1)NC(=O)[C@@H]1CCC(=O)N1 [D-Arg-chicken II GnRH-ethylamide, D-Arg (6)-chicken II GnRH-des-Gly (10)-ethylamide] ([pGlu]HWSH[dR]WYP-NHEt)
Ki ([1]; Example III): > 200 nM

Molecule: CCNC(=O)[C@@H]1CCCN1C(=O)[C@H](CCCNC(=N)N)NC(=O)[C@H](CC(C)C)NC(=O)[C@@H](CC(C)C)NC(=O)[C@H](Cc1ccc(O)cc1)NC(=O)[C@H](CO)NC(=O)[C@H](Cc1c[nH]c2ccccc12)NC(=O)[C@H](Cc1c[nH]cn1)NC(=O)[C@@H]1CCC(=O)N1 [MAMMALIAN D-LEU (6), EA (10), des-Gly^10, D-Leu^6-GnRH-ethylamide]
degradation by / competition for C-ase-1, in words [2]: potent competitive inhibitors

Molecule: CC(C)C[C@H](NC(=O)[C@@H](COC(C)(C)C)NC(=O)[C@H](Cc1ccc(O)cc1)NC(=O)[C@H](CO)NC(=O)[C@H](Cc1c[nH]c2ccccc12)NC(=O)[C@H](Cc1cnc[nH]1)NC(=O)[C@@H]1CCC(=O)N1)C(=O)N[C@@H](CCCNC(=N)N)C(=O)N1CCC[C@H]1C(=O)NNC(N)=O [ZOLADEX, Goserelin acetate]
abortions (pregnant baboons; in vivo): not consistently effected | pregnancy outcome (pregnant baboons; in vivo): in most animals pregnancy outcomes were jeopardized | CG and progesterone (pregnant baboons; vs saline controls): decreased

Molecule: CCNC(=O)[C@@H]1CCCN1C(=O)[C@H](CCCNC(=N)N)NC(=O)[C@H](CC(C)C)NC(=O)[C@@H](Cc1c[nH]c2ccccc12)NC(=O)[C@H](Cc1ccc(O)cc1)NC(=O)[C@H](CO)NC(=O)[C@H](Cc1c[nH]c2ccccc12)NC(=O)[C@H](Cc1c[nH]cn1)NC(=O)[C@@H]1CCC(=O)N1 [^6D-Trp-GnRH-^10 ethylamide]
receptor activity/potency compared with GnRH [3]: twice as active

Molecule: CCNC(=O)[C@@H]1CCCN1C(=O)[C@H](CCCNC(=N)N)NC(=O)[C@H](CC(C)C)NC(=O)[C@@H](Cc1cn(Cc2ccccc2)cn1)NC(=O)[C@H](Cc1ccc(O)cc1)NC(=O)[C@H](CO)NC(=O)[C@H](Cc1c[nH]c2ccccc12)NC(=O)[C@H](Cc1cnc[nH]1)NC(=O)[C@@H]1CCC(=O)N1 [^6Im-btl-D-His-GnRH^10 ethylamide, des-Gly^10-Im-Btl-D-His^6-GnRH-ethylamide]
receptor activity/potency compared with GnRH [3]: half the potency | receptor activity/potency compared with GnRH ([3]; listed as 6Im-btl-D-His-GnRH-^10 ethylamide): half the potency | receptor activity/potency compared with GnRH ([3]; listed as Im-Btl-His(6) analog): reduced receptor potency | degradation by / competition for C-ase-1, in words [2]: resistant to degradation

Molecule: CCNC(=O)[C@@H]1CCCN1C(=O)[C@H](Cc1ccc(O)cc1)NC(=O)[C@H](Cc1c[nH]c2ccccc12)NC(=O)CNC(=O)[C@H](Cc1c[nH]cn1)NC(=O)[C@H](CO)NC(=O)[C@H](Cc1c[nH]c2ccccc12)NC(=O)[C@H](Cc1c[nH]cn1)NC(=O)[C@@H]1CCC(=O)N1 [chicken II GnRH ethylamide, chicken II GnRH-^10 ethylamide] ([pGlu]HWSHGWYP-NHEt)
receptor activity/potency compared with GnRH [3]: 33 fold | stability in whole placental homogenates (placental homogenate): more stable than the mammalian GnRH analogs

Molecule: ^9OH-Pro-GnRH
relative potency of inhibition of C-ase-1 degradation of GnRH, compared to GnRH [1]: 1.5 | potency as competitor for GnRH degradation by C-ase-1 compared with GnRH ([1]; Example VII): as or even more potent than GnRH

Now from value to molecule, other results behind:

degradation/competition relative to mammalian GnRH ([1]; Example III): one-sixth | relative potency of inhibition of C-ase-1 degradation of GnRH, compared to GnRH [1]: 0.2 | Ki ([1]; Example III): 200 nM | receptor binding potency compared with chicken II GnRH isoform or Buserelin ([3]; Buserelin label, Example II): equipotent to Buserelin | receptor binding potency compared with mammalian GnRH ([3]; Buserelin label, Example II): three-fold more potent
Molecule: NC(=O)CNC(=O)[C@@H]1CCCN1C(=O)[C@H](Cc1ccc(O)cc1)NC(=O)[C@H](Cc1c[nH]c2ccccc12)NC(=O)CNC(=O)[C@H](Cc1c[nH]cn1)NC(=O)[C@H](CO)NC(=O)[C@H](Cc1c[nH]c2ccccc12)NC(=O)[C@H](Cc1c[nH]cn1)NC(=O)[C@@H]1CCC(=O)N1 [chicken II GnRH] ([pGlu]HWSHGWYPG-NH2; C-terminus assumed)
stability in whole placental homogenates (placental homogenate): more stable than the mammalian GnRH analogs

degradation by / competition for C-ase-1, in words [2]: potent competitive inhibitors
Molecule: CCNC(=O)[C@@H]1CCCN1C(=O)[C@H](CCCNC(=N)N)NC(=O)[C@H](CC(C)C)NC(=O)CNC(=O)[C@H](Cc1ccc(O)cc1)NC(=O)[C@H](CO)NC(=O)[C@H](Cc1c[nH]c2ccccc12)NC(=O)[C@H](Cc1c[nH]cn1)NC(=O)[C@@H]1CCC(=O)N1 [des-Gly^10-GnRH-ethylamide] ([pGlu]HWSYGLRP-NHEt)

relative potency of inhibition of C-ase-1 degradation of GnRH, compared to GnRH [1]: 1.5 | potency as competitor for GnRH degradation by C-ase-1 compared with GnRH ([1]; Example VII): as or even more potent than GnRH
Molecule: CC(C)C[C@H](NC(=O)[C@H](CO)NC(=O)[C@H](Cc1ccc(O)cc1)NC(=O)[C@H](Cc1c[nH]cn1)NC(=O)[C@@H]1CCC(=O)N1)C(=O)N[C@@H](CCC(=O)O)C(=O)N[C@@H](Cc1c[nH]c2ccccc12)C(=O)N[C@@H](CCCCN)C(=O)N1CCC[C@H]1C(=O)NCC(N)=O [lamprey GnRH] ([pGlu]HYSLEWKPG-NH2)

relative potency of inhibition of C-ase-1 degradation of GnRH, compared to GnRH [1]: 0.2
Molecule: CC(C)C[C@H](NC(=O)[C@H](Cc1c[nH]c2ccccc12)NC(=O)CNC(=O)[C@H](Cc1ccc(O)cc1)NC(=O)[C@H](CO)NC(=O)[C@H](Cc1c[nH]c2ccccc12)NC(=O)[C@H](Cc1c[nH]cn1)NC(=O)[C@@H]1CCC(=O)N1)C(=O)N1CCC[C@H]1C(=O)NCC(N)=O [salmon GnRH] ([pGlu]HWSYGWLPG-NH2)

degradation by / competition for C-ase-1, in words [2]: resistant to degradation
Molecule: chicken II GnRH-^10 aza-Gly-amide
